Columns and labels:
Assay type in all cases: in vivo
[1] = test system: Alopecurus myosuroides (ALOMY); assay: Pre-emergence herbicidal glasshouse test on Alopecurus myosuroides; settings: pre-emergence, 1000 g/h, evaluated after 13 days
Summary of the method: (§1)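 Steps: sow seeds in standard soil; cultivate 1 d (pre-) or 8 d (post-emergence) at 24/16 °C, 14 h light, 65% humidity; spray 1000 g/h in acetone/water plus Tween 20; grow on, watering twice daily; score percentage damage after 13 d.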

Setaria faberi (SETFA) [2] = assay: Pre-emergence herbicidal glasshouse test on Setaria faberi; settings: pre-emergence, 1000 g/h, evaluated after 13 days
Summary of the method: as §1

[3] = test system: Echinochloa crus-galli (ECHCG); assay: Pre-emergence herbicidal glasshouse test on Echinochloa crus-galli; settings: pre-emergence, 1000 g/h, evaluated after 13 days
Summary of the method: as §1

Solanum nigrum (SOLNI) [4] = assay: Pre-emergence herbicidal glasshouse test on Solanum nigrum; settings: pre-emergence, 1000 g/h, evaluated after 13 days
Summary of the method: as §1

[5] = test system: Amaranthus retoflexus (AMARE); assay: Pre-emergence herbicidal glasshouse test on Amaranthus retoflexus; settings: pre-emergence, 1000 g/h, evaluated after 13 days
Summary of the method: as §1

[6] = test system: Ipomoea hederacea (IPOHE); assay: Pre-emergence herbicidal glasshouse test on Ipomoea hederacea; settings: pre-emergence, 1000 g/h, evaluated after 13 days
Summary of the method: as §1

[7] = test system: Alopecurus myosuroides (ALOMY); assay: Post-emergence herbicidal glasshouse test on Alopecurus myosuroides; settings: post-emergence, 1000 g/h, evaluated after 13 days
Summary of the method: as §1

Setaria faberi (SETFA) [8] = assay: Post-emergence herbicidal glasshouse test on Setaria faberi; settings: post-emergence, 1000 g/h, evaluated after 13 days
Summary of the method: as §1

[9] = test system: Echinochloa crus-galli (ECHCG); assay: Post-emergence herbicidal glasshouse test on Echinochloa crus-galli; settings: post-emergence, 1000 g/h, evaluated after 13 days
Summary of the method: as §1

Solanum nigrum (SOLNI) [10] = assay: Post-emergence herbicidal glasshouse test on Solanum nigrum; settings: post-emergence, 1000 g/h, evaluated after 13 days
Summary of the method: as §1

[11] = test system: Amaranthus retoflexus (AMARE); assay: Post-emergence herbicidal glasshouse test on Amaranthus retoflexus; settings: post-emergence, 1000 g/h, evaluated after 13 days
Summary of the method: as §1

[12] = test system: Ipomoea hederacea (IPOHE); assay: Post-emergence herbicidal glasshouse test on Ipomoea hederacea; settings: post-emergence, 1000 g/h, evaluated after 13 days
Summary of the method: as §1

Row | SMILES | PRE Application ALOMY herbicidal damage (five point scale) [1] | PRE Application SETFA herbicidal damage (five point scale) (Setaria faberi (SETFA) [2]) | PRE Application ECHCG herbicidal damage (five point scale) [3] | PRE Application SOLNI herbicidal damage (five point scale) (Solanum nigrum (SOLNI) [4]) | PRE Application AMARE herbicidal damage (five point scale) [5] | PRE Application IPOHE herbicidal damage (five point scale) [6] | POST Application ALOMY herbicidal damage (five point scale) [7] | POST Application SETFA herbicidal damage (five point scale) (Setaria faberi (SETFA) [8]) | POST Application ECHCG herbicidal damage (five point scale) [9] | POST Application SOLNI herbicidal damage (five point scale) (Solanum nigrum (SOLNI) [10]) | POST Application AMARE herbicidal damage (five point scale) [11] | POST Application IPOHE herbicidal damage (five point scale) [12] | also measured
1 | CS(=O)(=O)c1ccccc1-c1cnn(CC(F)F)c(=O)c1O [Compound 2.012] | 5 (5=80-100% damage) | 5 (5=80-100% damage) | 5 (5=80-100% damage) | 5 (5=80-100% damage) | 5 (5=80-100% damage) | 5 (5=80-100% damage) | 5 (5=80-100% damage) | 5 (5=80-100% damage) | 5 (5=80-100% damage) | 5 (5=80-100% damage) | 5 (5=80-100% damage) | 5 (5=80-100% damage) | 
2 | COCn1ncc(-c2ccccc2S(C)(=O)=O)c(O)c1=O [Compound 1.144] | 5 (5=80-100% damage) | 4 (4=60-79% damage) | 5 (5=80-100% damage) | 5 (5=80-100% damage) | 5 (5=80-100% damage) | 4 (4=60-79% damage) | 5 (5=80-100% damage) | 5 (5=80-100% damage) | 5 (5=80-100% damage) | 5 (5=80-100% damage) | 5 (5=80-100% damage) | 5 (5=80-100% damage) | 
3 | Cc1c(-c2cnn(C)c(=O)c2O)ccc(S(C)(=O)=O)c1C1=NOCC1 [Compound 1.018] | 2 (2=20-39% damage) | 4 (4=60-79% damage) | 5 (5=80-100% damage) | 5 (5=80-100% damage) | 5 (5=80-100% damage) | 5 (5=80-100% damage) | 4 (4=60-79% damage) | 5 (5=80-100% damage) | 5 (5=80-100% damage) | 5 (5=80-100% damage) | 5 (5=80-100% damage) | 5 (5=80-100% damage) | 
4 | Cn1ncc(-c2ccc(F)cc2S(C)(=O)=O)c(O)c1=O [Compound 1.058] | 5 (5=80-100% damage) | 5 (5=80-100% damage) | 5 (5=80-100% damage) | 5 (5=80-100% damage) | 5 (5=80-100% damage) | 5 (5=80-100% damage) | 5 (5=80-100% damage) | 5 (5=80-100% damage) | 5 (5=80-100% damage) | 5 (5=80-100% damage) | 5 (5=80-100% damage) | 5 (5=80-100% damage) | 
5 | Cc1cc(-c2cnn(C)c(=O)c2O)c(=O)n(-c2ccccc2)c1 [Compound 6.001] | 1 (1=0-19% damage) | 1 (1=0-19% damage) | 1 (1=0-19% damage) | 1 (1=0-19% damage) | 1 (1=0-19% damage) | 1 (1=0-19% damage) | 3 (3=40-59% damage) | 3 (3=40-59% damage) | 5 (5=80-100% damage) | 5 (5=80-100% damage) | 5 (5=80-100% damage) | 1 (1=0-19% damage) | 
6 | CC[S+]([O-])c1ccccc1-c1cnn(COC)c(=O)c1O (stereo not drawn) [Compound 2.003] | 3 (3=40-59% damage) | 4 (4=60-79% damage) | 4 (4=60-79% damage) | 1 (1=0-19% damage) | 5 (5=80-100% damage) | 1 (1=0-19% damage) | 3 (3=40-59% damage) | 4 (4=60-79% damage) | 5 (5=80-100% damage) | 5 (5=80-100% damage) | 5 (5=80-100% damage) | 4 (4=60-79% damage) | 
7 | COc1ccc(-c2cnn(C)c(=O)c2O)c(OC)n1 [Compound 1.153] |  |  |  |  |  |  |  |  |  |  |  |  | herbicidal damage, PRE Application ALOMY ([1]; five point scale): 1 (1=0-19% damage); herbicidal damage, PRE Application SETFA (Setaria faberi (SETFA) [2]; five point scale): 1 (1=0-19% damage); herbicidal damage, PRE Application ECHCG ([3]; five point scale): 2 (2=20-39% damage); herbicidal damage, PRE Application SOLNI (Solanum nigrum (SOLNI) [4]; five point scale): 2 (2=20-39% damage); herbicidal damage, PRE Application AMARE ([5]; five point scale): 2 (2=20-39% damage); herbicidal damage, PRE Application IPOHE ([6]; five point scale): 3 (3=40-59% damage); herbicidal damage, POST Application ALOMY ([7]; five point scale): 1 (1=0-19% damage); herbicidal damage, POST Application SETFA (Setaria faberi (SETFA) [8]; five point scale): 1 (1=0-19% damage); herbicidal damage, POST Application ECHCG ([9]; five point scale): 1 (1=0-19% damage); herbicidal damage, POST Application SOLNI (Solanum nigrum (SOLNI) [10]; five point scale): 4 (4=60-79% damage); herbicidal damage, POST Application AMARE ([11]; five point scale): 2 (2=20-39% damage); herbicidal damage, POST Application IPOHE ([12]; five point scale): 2 (2=20-39% damage)
8 | C#Cc1ccc(-c2cnn(C)c(=O)c2O)c(S(C)(=O)=O)c1 [Compound 2.028] | 5 (5=80-100% damage) | 4 (4=60-79% damage) | 5 (5=80-100% damage) | 5 (5=80-100% damage) | 5 (5=80-100% damage) | 4 (4=60-79% damage) | 5 (5=80-100% damage) | 5 (5=80-100% damage) | 5 (5=80-100% damage) | 5 (5=80-100% damage) | 5 (5=80-100% damage) | 5 (5=80-100% damage) | 
9 | CCCn1ncc(-c2ccc(S(C)(=O)=O)c(C3=NOCC3)c2Cl)c(O)c1=O [Compound 1.125, 5-[2-chloro-3-(4,5-dihydroisoxazol-3-yl)-4-methylsulfonyl-phenyl]-4-hydroxy-2-propyl-pyridazin-3-one] | 4 (4=60-79% damage) | 5 (5=80-100% damage) | 5 (5=80-100% damage) | 4 (4=60-79% damage) | 5 (5=80-100% damage) | 1 (1=0-19% damage) | 5 (5=80-100% damage) | 5 (5=80-100% damage) | 5 (5=80-100% damage) | 5 (5=80-100% damage) | 5 (5=80-100% damage) | 5 (5=80-100% damage) | 
10 | Cn1ncc(-n2ccc(C(F)(F)F)cc2=O)c(O)c1=O [Compound 1.078] | 2 (2=20-39% damage) | 5 (5=80-100% damage) | 5 (5=80-100% damage) | 5 (5=80-100% damage) | 5 (5=80-100% damage) | 2 (2=20-39% damage) | 1 (1=0-19% damage) | 5 (5=80-100% damage) | 5 (5=80-100% damage) | 5 (5=80-100% damage) | 5 (5=80-100% damage) | 4 (4=60-79% damage) | 

Reference: patent US9693556B2, “Herbicidal pyridazinone derivatives” (SYNGENTA LIMITED, priority 2011, dated 2017)
